Data: patent US20160221948A1, “NITROGEN-CONTAINING SATURATED HETEROCYCLIC COMPOUND” (SUMITOMO CHEMICAL COMPANY, LIMITED, priority 2013, published 2016)

How the values were obtained:
Tg 2576 mice [1] = test: Cognitive function improving action (mORT) using Tg 2576 mice; format: in vivo, mouse; conditions: 30 mg/kg/day mixed in feed for 4 months
Procedure: (§1) Evaluation of Cognitive Function Improving Action and Aβ Reducing Action Using Tg 2576 Mice
(§2) Four-month-old Tg 2576 mice received compounds involved with the present invention mixed in feed for 4 months. After completion of administration, the mORT test was performed to evaluate cognitive function, then the amount of brain Aβ was measured by ELISA. […] Discrimination index as indexes for evaluating cognitive function were as follows (vehicle, 0.064±0.049, 30 mg/kg/day; 0.330±0.062).

SSTR1 = biological target: T1, SSTR1 (Homo sapiens, UniProt P30872); test: Binding affinity using cell membrane from cells expressing SSTR subtypes
T1 construct: expressed in transfected cells
T1 sequence (P30872 whole entry, species assumed): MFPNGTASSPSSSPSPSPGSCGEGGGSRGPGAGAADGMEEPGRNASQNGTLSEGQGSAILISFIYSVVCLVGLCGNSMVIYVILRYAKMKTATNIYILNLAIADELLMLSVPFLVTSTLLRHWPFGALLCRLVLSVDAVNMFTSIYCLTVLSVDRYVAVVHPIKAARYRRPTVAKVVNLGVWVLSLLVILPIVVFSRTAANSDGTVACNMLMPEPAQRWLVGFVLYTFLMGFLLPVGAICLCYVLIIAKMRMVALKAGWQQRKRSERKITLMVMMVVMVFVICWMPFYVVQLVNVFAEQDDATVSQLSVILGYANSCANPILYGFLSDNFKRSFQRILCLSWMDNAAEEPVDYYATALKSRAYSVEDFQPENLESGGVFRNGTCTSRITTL

SSTR5 = biological target: T2, SSTR5 (Homo sapiens, UniProt P35346); test: as above
T2 construct: expressed in transfected cells
T2 sequence (P35346 whole entry, species assumed): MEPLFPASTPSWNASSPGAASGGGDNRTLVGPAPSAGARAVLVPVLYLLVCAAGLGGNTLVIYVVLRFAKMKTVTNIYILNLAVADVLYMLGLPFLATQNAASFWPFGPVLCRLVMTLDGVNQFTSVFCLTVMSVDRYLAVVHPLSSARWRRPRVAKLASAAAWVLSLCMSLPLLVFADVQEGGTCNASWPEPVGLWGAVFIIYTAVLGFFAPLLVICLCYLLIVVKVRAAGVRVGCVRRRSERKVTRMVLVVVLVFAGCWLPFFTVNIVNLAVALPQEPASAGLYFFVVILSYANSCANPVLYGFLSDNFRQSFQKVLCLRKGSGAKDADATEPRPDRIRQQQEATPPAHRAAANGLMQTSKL

Crlj: WI rats = test: Acetylcholine release enhancing action, hippocampus microdialysis test using rats; format: in vivo, rat; conditions: 10 mg/kg (oral), 60 minutes after administration, high potassium stimulation
Procedure: Examination of Acetylcholine Release Enhancing Action with Microdialysis Test Using Rats
A guide cannula was placed into the hippocampus of Crlj: WI rats, and microdialysis was performed by inserting a probe after the animals were recovered. After administering the compounds involved with the present invention, the hippocampus was stimulated by changing the perfusate into the high potassium solution for 15 minutes. Acetylcholine levels in the perfusate were analyzed with a HPLC-ECD apparatus.

human SSTR4 = human SSTR4 (Homo sapiens, UniProt P31391); test: Evaluation of agonist activities using human SSTR4-stably expressing cells (aequorin luminescence); format: cell-based; parameters: expressed in transfected cells; host or cells: HEK293
human SSTR4, sequence (P31391 whole entry): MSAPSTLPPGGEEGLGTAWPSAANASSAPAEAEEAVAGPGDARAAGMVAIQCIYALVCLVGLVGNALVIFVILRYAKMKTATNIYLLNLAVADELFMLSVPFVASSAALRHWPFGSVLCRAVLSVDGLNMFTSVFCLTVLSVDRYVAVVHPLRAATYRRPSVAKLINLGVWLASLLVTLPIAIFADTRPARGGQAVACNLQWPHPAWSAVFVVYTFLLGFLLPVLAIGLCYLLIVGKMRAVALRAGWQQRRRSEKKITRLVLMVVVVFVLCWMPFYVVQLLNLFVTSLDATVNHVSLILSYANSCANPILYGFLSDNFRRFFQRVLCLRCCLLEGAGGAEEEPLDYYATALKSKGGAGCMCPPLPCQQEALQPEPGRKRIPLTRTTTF
Outline: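 HEK293 cells stably expressing SSTR4, transiently given Gα16 and apoaequorin, were loaded with 0.5 μmol/L coelenterazine H for 4 h at room temperature. After compound addition in Hanks/20 mM Hepes/0.1% BSA, luminescence was read for 90 s. Activity is relative to 1 μmol/L somatostatin as 100%.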

Slc:ddY mice [2] = test: Mouse novel object recognition test (mORT); format: in vivo
Procedure: Evaluation of cognitive function using mouse novel object recognition test (hereinafter, may be called “mORT”)
In the mORT using Slc:ddY mice (male, Japan SLC, Inc.) with body weight of 25-45 g or 35-40 g, memory deterioration to familiar subject depending on the interval time between the first trial (training) and the second trial (test) is observed. If the second trial is performed 24 hours after performing the first trial, significant forgetting is observed. […] […] (discrimination index as indexes for cognitive function are shown: 0.5% MC receiving group, 0.054±0.026; 3 mg/kg receiving group, 0.245±0.066.)

Tg 2576 mice [3] = test: Aβ reducing action (brain Aβ by ELISA) using Tg 2576 mice; format: in vivo, mouse
Procedure: as §1, §2

Slc:ddY mice [4] = test: Mouse Y-shaped maze test, scopolamine-induced memory impairment; format: in vivo; conditions: for spontaneous alternations: Scopolamine HBr 0.6 mg/kg subcutaneous
Procedure: Evaluation of amelioration in cognitive impairment using mouse Y-shaped maze test (hereinafter, may be called “Y-maze test”)
In the Y-maze test using Slc:ddY mice (male, Japan SLC, Inc.) with body weight of 25-35 g or 27-30 g, when 0.6 mg/kg of Scopolamine HBr (cat. No. S0929, Sigma Aldrich, USA) is subcutaneously administered to mice, memory impairment is caused, and reducing in spontaneous alternation is observed. Accordingly, mice were pre-treated by orally receiving compounds involved with the present invention, and ameliorating action in memory impairment was evaluated. […] (hereinafter, spontaneous alternations in each group in Example 21 are shown: 0.5% MC receiving group, 71.2±3.5; Scopolamine receiving group, 47.5±2.6; 1 mg/kg receiving group, 60.7±2.6; 3 mg/kg receiving group, 64.6±2.2.)

SSTR2 = biological target: T3, SSTR2 (Homo sapiens, UniProt P30874); test: Binding affinity using cell membrane from cells expressing SSTR subtypes
T3 construct: expressed in transfected cells
T3 sequence (P30874 whole entry, species assumed): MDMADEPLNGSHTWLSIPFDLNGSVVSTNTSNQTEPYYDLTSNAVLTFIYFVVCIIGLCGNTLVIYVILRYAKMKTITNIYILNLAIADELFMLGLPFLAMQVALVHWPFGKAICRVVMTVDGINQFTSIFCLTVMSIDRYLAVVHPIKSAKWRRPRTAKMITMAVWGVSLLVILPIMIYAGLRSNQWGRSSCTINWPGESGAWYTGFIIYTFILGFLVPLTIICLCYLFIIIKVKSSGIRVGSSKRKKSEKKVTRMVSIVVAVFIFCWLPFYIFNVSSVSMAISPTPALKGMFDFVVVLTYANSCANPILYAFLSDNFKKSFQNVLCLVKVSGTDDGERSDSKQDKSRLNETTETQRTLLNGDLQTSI

[5] = 3 mg/kg oral, given after the first trial

For `CN1CCC[C@H](C(=O)NC(C)(C)c2cc(Cl)ccc2Cl)C1` [Example 21, (3S)—N-[2-(2,5-dichlorophenyl)propane-2-yl]-1-methylpiperidine-3-carboxamide], the “cognitive function improving action” value (Tg 2576 mice [1]) was “significant cognitive function improving action”, the discrimination index (Tg 2576 mice [1]) was 0.330±0.062 and the Ki (SSTR1) was 1.57 µM. The Ki (SSTR5) was greater than 5 µM, the “acetylcholine level in hippocampus perfusate compared with the Vehicle” value (Crlj: WI rats) was “significantly enhanced acetylcholine level” and the “SSTR4 agonist activity compared with other compounds” value (human SSTR4; Tables 25 to 27) was “stronger SSTR4 agonist activity”. For the same compound, the EC50 (human SSTR4; luminescence signal, 1 μmol/L somatostatin taken as 100%) was 0.002 µM, the memory enhancing action (Slc:ddY mice [2]; 3 mg/kg (oral), administered before the first trial) was “significant memory enhancing action” and the discrimination index (Slc:ddY mice [2]; 3 mg/kg oral, administered before the first trial, second trial 24 hours later) was 0.214±0.072. For the same compound, the discrimination index (Slc:ddY mice [2]; [5]) was 0.245±0.066, the memory enhancing action (Slc:ddY mice [2]; [5]) was “significant memory enhancing action” and the “hippocampus Aβ42 reducing action compared with the Vehicle” value (Tg 2576 mice [3]; 100 mg/kg/day) was “significant hippocampus Aβ42 reducing action”. For the same compound, the “hippocampus Aβ42” value (Tg 2576 mice [3]; 100 mg/kg/day mixed in feed for 4 months) was 198.11 ± 26.32 pmol/g, the spontaneous alternations (Slc:ddY mice [4]; 1 mg/kg oral) was 60.7±2.6 and the spontaneous alternations (Slc:ddY mice [4]; 3 mg/kg oral) was 64.6±2.2. The “ameliorating action in memory impairment” value (Slc:ddY mice [4]; at 1 or 3 mg/kg (oral)) was “significant ameliorating action in memory impairment” and the Ki (SSTR2) was greater than 5 µM.
